In brackets after ≈: the same amount, converted by molar mass.
Legend:
pKa of the drug = assay type: physicochemical
Protocol: (§1) At least seven polymorphs of BIRB 796 have been isolated (the melt point of the drug is about 152° C. and the pKa about 6.1). The polymorphs generally exist in the form of elongated needles. BIRB 796 is relatively poorly soluble in physiological environments. The solubility of polymorphic BIRB 796 drug substance (Form IV) has been determined to be about 0.5 ug/ml at pH 7.4 and about 10 mg/ml at pH 2.0.

[1] = Discoloration on exposure to light or heat; assay type: physicochemical; settings: in the presence of light
Text: It has been discovered that BIRB 796 may lead to discoloration of a core tablet in which it is contained when that core tablet is exposed to light or heat. […] Tablet coatings preferably comprise 2-3%, more preferably about 2.5%, by weight of the BIRB 796 tablet. Masking of the color change may also be used to create a pharmaceutically acceptable dosage form, as for example, mixing dry colorants (including yellow no. 10 iron oxide lake) into the formulation.

[2] = Solubility of BIRB 796 drug substance; assay type: physicochemical; settings: for solubility: polymorphic drug substance (Form IV)
Protocol: as §1

[3] = test system: proinflammatory cytokines, such as tumor necrosis factor (TNF) and interleukin-1 (IL-1); settings: disclosed in PCT/US99/29165 and U.S. Pat. No. 6,319,921; cited from earlier work

Question: Which results are given for `Cc1ccc(-n2nc(C(C)(C)C)cc2NC(=O)Nc2ccc(OCCN3CCOCC3)c3ccccc23)cc1` [BIRB 796, 1-(5-tert-butyl-2-p-tolyl-2H-pyrazol-3-yl)-3-[4-(2-morpholin-4-yl-ethoxy)-naphthalen-1-yl]-urea]?
Answer: pKa (pKa of the drug): ~6.1; discoloration [1]: tendency to discolor in the presence of light; solubility ([2]; aqueous buffer, pH 7.4): ~0.5 µg/mL (≈ 0.000948 mM); aqueous solubility ([2]; in words): poor aqueous solubility; solubility ([2]; simulated gastric fluid, pH 2.0): ~10000 µg/mL (≈ 19 mM); inhibitory activity with respect to proinflammatory cytokines [3]: unexpectedly significant inhibitory activity
